Experimental data reported in PubChem BioAssay AID1259407 (Chemical Carcinogenesis Research Information System (CCRIS), 2018).
Calls of active or inactive are those of the source. The rule behind the calls is not given here.

Test system: CCRIS mutagenicity, Ames/micronucleus/aberration tests
Test: CCRIS mutagenicity studies
[1] = Test System: AMES SALMONELLA TYPHIMURIUM, Strain/Indicator: TA100, Metabolic Activation: NONE, Method: STANDARD PLATE
[2] = Test System: AMES SALMONELLA TYPHIMURIUM, Strain/Indicator: TA1538, Metabolic Activation: NONE, Method: STANDARD PLATE

CCCCCCC(C)(C)C(=O)OCC1CO1 (stereo not given)
mutagenic call (Test System: AMES SALMONELLA TYPHIMURIUM, Strain/Indicator: TA100, Metabolic Activation: HAMSTER, LIVER, S-9, AROCLOR 1254 (30%), Method: PREINCUBATION): active; positive
mutagenic call (Test System: AMES SALMONELLA TYPHIMURIUM, Strain/Indicator: TA100, Metabolic Activation: NONE, Method: PREINCUBATION): inactive; negative
mutagenic call (Test System: AMES SALMONELLA TYPHIMURIUM, Strain/Indicator: TA100, Metabolic Activation: RAT, LIVER, S-9, AROCLOR 1254 (30%), Method: PREINCUBATION): active; positive
mutagenic call (Test System: AMES SALMONELLA TYPHIMURIUM, Strain/Indicator: TA1535, Metabolic Activation: HAMSTER, LIVER, S-9, AROCLOR 1254 (30%), Method: PREINCUBATION): active; positive
mutagenic call (Test System: AMES SALMONELLA TYPHIMURIUM, Strain/Indicator: TA1535, Metabolic Activation: NONE, Method: PREINCUBATION): inactive; negative
mutagenic call (Test System: AMES SALMONELLA TYPHIMURIUM, Strain/Indicator: TA1535, Metabolic Activation: RAT, LIVER, S-9, AROCLOR 1254 (30%), Method: PREINCUBATION): active; positive

CCOc1ccc(NC(C)=O)cc1N
mutagenic call (Test System: AMES SALMONELLA TYPHIMURIUM, Strain/Indicator: TA98, Metabolic Activation: HAMSTER, LIVER, S-9, AROCLOR 1254, Method: STANDARD PLATE): active; positive
mutagenic call (Test System: AMES SALMONELLA TYPHIMURIUM, Strain/Indicator: TA98, Metabolic Activation: HAMSTER, LIVER, S-9, Method: STANDARD PLATE): active; positive
mutagenic call (Test System: AMES SALMONELLA TYPHIMURIUM, Strain/Indicator: TA98, Metabolic Activation: MOUSE, LIVER, S-9, AROCLOR 1254, Method: STANDARD PLATE): active; positive
mutagenic call (Test System: AMES SALMONELLA TYPHIMURIUM, Strain/Indicator: TA98, Metabolic Activation: MOUSE, LIVER, S-9, Method: STANDARD PLATE): active; positive
mutagenic call (Test System: AMES SALMONELLA TYPHIMURIUM, Strain/Indicator: TA98, Metabolic Activation: RAT, LIVER, S-9, AROCLOR 1254, Method: STANDARD PLATE): active; positive
mutagenic call (Test System: AMES SALMONELLA TYPHIMURIUM, Strain/Indicator: TA98, Metabolic Activation: RAT, LIVER, S-9, Method: STANDARD PLATE): active; positive
mutagenic call (Test System: AMES SALMONELLA TYPHIMURIUM, Strain/Indicator: TA100, Metabolic Activation: HAMSTER, LIVER, S-9, AROCLOR 1254, Method: STANDARD PLATE): active; positive
mutagenic call (Test System: AMES SALMONELLA TYPHIMURIUM, Strain/Indicator: TA100, Metabolic Activation: MOUSE, LIVER, S-9, AROCLOR 1254, Method: STANDARD PLATE): inactive; negative
mutagenic call (Test System: AMES SALMONELLA TYPHIMURIUM, Strain/Indicator: TA100, Metabolic Activation: MOUSE, LIVER, S-9, Method: STANDARD PLATE): inactive; negative
mutagenic call [1]: inactive; negative
mutagenic call (Test System: AMES SALMONELLA TYPHIMURIUM, Strain/Indicator: TA100, Metabolic Activation: RAT, LIVER, S-9, Method: STANDARD PLATE): inactive; negative
mutagenic call (Test System: AMES SALMONELLA TYPHIMURIUM, Strain/Indicator: TA1535, Metabolic Activation: HAMSTER, LIVER, S-9, AROCLOR 1254, Method: STANDARD PLATE): inactive; negative
mutagenic call (Test System: AMES SALMONELLA TYPHIMURIUM, Strain/Indicator: TA1535, Metabolic Activation: HAMSTER, LIVER, S-9, Method: STANDARD PLATE): inactive; negative
mutagenic call (Test System: AMES SALMONELLA TYPHIMURIUM, Strain/Indicator: TA1535, Metabolic Activation: MOUSE, LIVER, S-9, AROCLOR 1254, Method: STANDARD PLATE): inactive; negative
mutagenic call (Test System: AMES SALMONELLA TYPHIMURIUM, Strain/Indicator: TA1535, Metabolic Activation: MOUSE, LIVER, S-9, Method: STANDARD PLATE): inactive; negative
mutagenic call (Test System: AMES SALMONELLA TYPHIMURIUM, Strain/Indicator: TA1535, Metabolic Activation: NONE, Method: STANDARD PLATE): inactive; negative
mutagenic call (Test System: AMES SALMONELLA TYPHIMURIUM, Strain/Indicator: TA1535, Metabolic Activation: RAT, LIVER, S-9, AROCLOR 1254, Method: STANDARD PLATE): inactive; negative
mutagenic call (Test System: AMES SALMONELLA TYPHIMURIUM, Strain/Indicator: TA1535, Metabolic Activation: RAT, LIVER, S-9, Method: STANDARD PLATE): inactive; negative
mutagenic call (Test System: AMES SALMONELLA TYPHIMURIUM, Strain/Indicator: TA1537, Metabolic Activation: HAMSTER, LIVER, S-9, AROCLOR 1254, Method: STANDARD PLATE): active; positive
mutagenic call (Test System: AMES SALMONELLA TYPHIMURIUM, Strain/Indicator: TA1537, Metabolic Activation: HAMSTER, LIVER, S-9, Method: STANDARD PLATE): active; positive
mutagenic call (Test System: AMES SALMONELLA TYPHIMURIUM, Strain/Indicator: TA1537, Metabolic Activation: MOUSE, LIVER, S-9, AROCLOR 1254, Method: STANDARD PLATE): active; positive
mutagenic call (Test System: AMES SALMONELLA TYPHIMURIUM, Strain/Indicator: TA1537, Metabolic Activation: RAT, LIVER, S-9, AROCLOR 1254, Method: STANDARD PLATE): active; positive
mutagenic call (Test System: AMES SALMONELLA TYPHIMURIUM, Strain/Indicator: TA1538, Metabolic Activation: HAMSTER, LIVER, S-9, AROCLOR 1254, Method: STANDARD PLATE): active; positive
mutagenic call (Test System: AMES SALMONELLA TYPHIMURIUM, Strain/Indicator: TA1538, Metabolic Activation: HAMSTER, LIVER, S-9, Method: STANDARD PLATE): active; positive
mutagenic call (Test System: AMES SALMONELLA TYPHIMURIUM, Strain/Indicator: TA1538, Metabolic Activation: MOUSE, LIVER, S-9, AROCLOR 1254, Method: STANDARD PLATE): active; positive
mutagenic call [2]: inactive; negative
mutagenic call (Test System: AMES SALMONELLA TYPHIMURIUM, Strain/Indicator: TA1538, Metabolic Activation: RAT, LIVER, S-9, AROCLOR 1254, Method: STANDARD PLATE): active; positive
mutagenic call (Test System: AMES SALMONELLA TYPHIMURIUM, Strain/Indicator: TA1538, Metabolic Activation: RAT, LIVER, S-9, Method: STANDARD PLATE): active; positive
mutagenic call (Test System: E. COLI, Strain/Indicator: WP2 UVRA, Metabolic Activation: HAMSTER, LIVER, S-9, AROCLOR 1254, Method: STANDARD PLATE): inactive; negative
mutagenic call (Test System: E. COLI, Strain/Indicator: WP2 UVRA, Metabolic Activation: HAMSTER, LIVER, S-9, Method: STANDARD PLATE): inactive; negative
mutagenic call (Test System: E. COLI, Strain/Indicator: WP2 UVRA, Metabolic Activation: MOUSE, LIVER, S-9, AROCLOR 1254, Method: STANDARD PLATE): inactive; negative
mutagenic call (Test System: E. COLI, Strain/Indicator: WP2 UVRA, Metabolic Activation: MOUSE, LIVER, S-9, Method: STANDARD PLATE): inactive; negative
mutagenic call (Test System: E. COLI, Strain/Indicator: WP2 UVRA, Metabolic Activation: NONE, Method: STANDARD PLATE): inactive; negative
mutagenic call (Test System: E. COLI, Strain/Indicator: WP2 UVRA, Metabolic Activation: RAT, LIVER, S-9, Method: STANDARD PLATE): inactive; negative

Nc1ccc2[nH]c3ccccc3c2c1[N+](=O)[O-]
mutagenic call (Test System: AMES SALMONELLA TYPHIMURIUM, Strain/Indicator: TA98, Metabolic Activation: NONE, Method: STANDARD PLATE): active; positive
mutagenic call (Test System: AMES SALMONELLA TYPHIMURIUM, Strain/Indicator: TA98, Metabolic Activation: RAT, LIVER, S-9, PHENOBARBITAL, Method: STANDARD PLATE): active; positive
mutagenic call [1]: active; positive
mutagenic call (Test System: AMES SALMONELLA TYPHIMURIUM, Strain/Indicator: TA100, Metabolic Activation: RAT, LIVER, S-9, PHENOBARBITAL, Method: STANDARD PLATE): inactive; negative
mutagenic call (Test System: AMES SALMONELLA TYPHIMURIUM, Strain/Indicator: TA1537, Metabolic Activation: NONE, Method: STANDARD PLATE): active; positive
mutagenic call (Test System: AMES SALMONELLA TYPHIMURIUM, Strain/Indicator: TA1537, Metabolic Activation: RAT, LIVER, S-9, PHENOBARBITAL, Method: STANDARD PLATE): active; positive
mutagenic call [2]: active; positive
mutagenic call (Test System: AMES SALMONELLA TYPHIMURIUM, Strain/Indicator: TA1538, Metabolic Activation: RAT, LIVER, S-9, PHENOBARBITAL, Method: STANDARD PLATE): active; positive
mutagenic call (Test System: AMES SALMONELLA TYPHIMURIUM, Strain/Indicator: TA1977, Metabolic Activation: NONE, Method: STANDARD PLATE): active; positive
mutagenic call (Test System: AMES SALMONELLA TYPHIMURIUM, Strain/Indicator: TA1977, Metabolic Activation: RAT, LIVER, S-9, PHENOBARBITAL, Method: STANDARD PLATE): active; positive
